From paper PMC7213978, “The dynamic interplay of host and viral enzymes in type III CRISPR-mediated cyclic nucleotide signalling” (eLife, 2020)

Target: T1, AcrIII-1 (SIRV1 gp29) (Sulfolobus islandicus rod-shaped virus 1, UniProt Q8QL27, H47A)
T1 construct: gene 114
Experiment: biochemical

T1 sequence (Q8QL27 whole entry H47A): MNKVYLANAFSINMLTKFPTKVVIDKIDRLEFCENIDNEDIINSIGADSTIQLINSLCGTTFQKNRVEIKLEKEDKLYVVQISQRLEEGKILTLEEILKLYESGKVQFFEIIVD

For Nc1ncnc2c1ncn2[C@@H]1O[C@@H]2COP(=O)(O)O[C@H]3[C@@H](O)[C@H](n4cnc5c(N)ncnc54)O[C@@H]3COP(=O)(O)O[C@H]3[C@@H](O)[C@H](n4cnc5c(N)ncnc54)O[C@@H]3COP(=O)(O)O[C@H]3[C@@H](O)[C@H](n4cnc5c(N)ncnc54)O[C@@H]3COP(=O)(O)O[C@H]2[C@H]1O [cA4, cyclic tetra-adenylate], the Kd was roughly 25 nM.
